Reference: patent US10479780B2, “Aminopyrazole derivatives” (Chugai Seiyaku Kabushiki Kaisha, priority 2015, dated 2019)
Like-named read-outs stand apart in the source and are kept apart here.

Experiments:
Format in all cases: biochemical
[1] = biological target: T1, human Lck enzyme (Homo sapiens, UniProt P06239); assay: Lck enzyme inhibitory activity (time-resolved fluorometry, biotinylated peptide phosphorylation); conditions: read-out: LCK_IC50
T1 construct: purchased Carna Biosciences, Inc. 08-170
Description: (§1) 3. Lck Enzyme Inhibitory Activity Lck inhibitory activity was determined based on activity of inhibiting phosphorylation reaction of a biotinylated peptide (EGPWLEEEEEAYGWMDF) using a human Lck enzyme (manufactured by Carna Biosciences, Inc., cat 08-170). The phosphorylated biotinylated peptide was detected by time-resolved fluorometry using an anti-phosphorylated tyrosine antibody conjugated to europium cryptate, and streptavidin conjugated to XL665, an allophycocyanin derivative. The 50% inhibitory concentration (IC50) was calculated from the inhibition rate relative to the control group without containing the test substance.

[2] = biological target: T2, human Yes1 enzyme (Homo sapiens, UniProt P07947); assay: Yes1 enzyme inhibitory activity (time-resolved fluorometry, biotinylated peptide phosphorylation); conditions: read-out: YES_IC50
T2 construct: made in house
Description: as §1, with “1. Yes1” for “3. Lck”, “Yes1” for “Lck”, “prepared using a baculovirus expression system.” for “(manufactured by Carna Biosciences, Inc., cat 08-170).”

[3] = biological target: T3, human Src enzyme (Homo sapiens, UniProt P12931); assay: Src enzyme inhibitory activity (time-resolved fluorometry, biotinylated peptide phosphorylation); conditions: read-out: SRC_IC50
T3 construct: purchased Carna Biosciences, Inc. 08-173
Description: as §1, with “2. Src” for “3. Lck”, “Src” for “Lck”, “08-173).” for “08-170).”

[4] = biotinylated peptide phosphorylation

T1 sequence (P06239 whole entry): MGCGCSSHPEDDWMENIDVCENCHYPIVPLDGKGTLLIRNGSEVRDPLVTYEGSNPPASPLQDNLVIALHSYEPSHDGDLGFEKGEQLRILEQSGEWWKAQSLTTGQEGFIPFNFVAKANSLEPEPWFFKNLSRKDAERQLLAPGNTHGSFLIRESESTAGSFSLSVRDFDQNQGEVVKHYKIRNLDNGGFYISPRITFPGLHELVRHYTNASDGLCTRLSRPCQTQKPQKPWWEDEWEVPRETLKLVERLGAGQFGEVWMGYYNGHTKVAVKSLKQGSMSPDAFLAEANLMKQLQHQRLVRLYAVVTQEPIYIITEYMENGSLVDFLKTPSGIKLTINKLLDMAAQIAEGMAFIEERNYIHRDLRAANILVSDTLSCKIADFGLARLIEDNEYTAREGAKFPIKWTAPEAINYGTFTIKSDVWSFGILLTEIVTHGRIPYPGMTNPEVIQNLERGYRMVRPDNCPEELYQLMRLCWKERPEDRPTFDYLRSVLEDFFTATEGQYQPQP
T2 sequence (P07947 whole entry): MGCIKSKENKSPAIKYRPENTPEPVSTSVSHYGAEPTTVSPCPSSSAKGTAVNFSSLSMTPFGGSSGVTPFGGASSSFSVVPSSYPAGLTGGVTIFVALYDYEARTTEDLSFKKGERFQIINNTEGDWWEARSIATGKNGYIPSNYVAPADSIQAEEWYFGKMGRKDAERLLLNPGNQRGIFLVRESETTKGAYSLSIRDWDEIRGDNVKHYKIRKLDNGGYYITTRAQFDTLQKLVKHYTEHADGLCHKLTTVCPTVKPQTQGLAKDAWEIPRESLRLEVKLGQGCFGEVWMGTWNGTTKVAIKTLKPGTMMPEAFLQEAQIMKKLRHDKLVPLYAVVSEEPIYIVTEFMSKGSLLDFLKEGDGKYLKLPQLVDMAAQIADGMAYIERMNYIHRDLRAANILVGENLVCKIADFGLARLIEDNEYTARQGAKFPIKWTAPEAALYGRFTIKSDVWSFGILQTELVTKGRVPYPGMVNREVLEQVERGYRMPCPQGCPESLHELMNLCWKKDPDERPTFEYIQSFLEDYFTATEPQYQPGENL
T3 sequence (P12931 whole entry): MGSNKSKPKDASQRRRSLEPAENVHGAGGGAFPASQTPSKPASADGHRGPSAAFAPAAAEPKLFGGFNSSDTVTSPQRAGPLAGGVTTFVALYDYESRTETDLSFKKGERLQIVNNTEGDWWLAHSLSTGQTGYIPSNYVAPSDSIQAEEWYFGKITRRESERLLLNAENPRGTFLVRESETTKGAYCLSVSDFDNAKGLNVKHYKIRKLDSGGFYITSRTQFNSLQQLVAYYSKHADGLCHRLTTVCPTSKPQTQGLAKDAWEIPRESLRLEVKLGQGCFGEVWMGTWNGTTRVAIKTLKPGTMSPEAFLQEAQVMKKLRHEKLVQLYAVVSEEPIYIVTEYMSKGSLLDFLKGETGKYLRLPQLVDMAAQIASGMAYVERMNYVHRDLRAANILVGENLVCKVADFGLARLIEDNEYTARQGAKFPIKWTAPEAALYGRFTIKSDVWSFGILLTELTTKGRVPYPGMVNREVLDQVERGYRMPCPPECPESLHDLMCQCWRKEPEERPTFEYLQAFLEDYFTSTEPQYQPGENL

SMILES	IC50 [1]	IC50 [2]	IC50 [3]	IC50 [1, 4]	IC50 [2, 4]	IC50 [3, 4]
CS(=O)(=O)Nc1cc2[nH]c(C(=O)c3cnn(-c4ccc(Oc5cccc(F)c5F)cc4Cl)c3N)cc2cc1F [Example 5-1-016, N-[2-[5-amino-1-[2-chloro-4-(2,3-difluorophenoxy)phenyl]pyrazole-4-carbonyl]-5-fluoro-1H-indol-6-yl]methanesulfonamide]	25 nM	0.72 nM	93 nM			
Cc1cc(Oc2ccccc2F)ncc1-n1ncc(C(=O)c2cc3cc(OCC(F)F)c(NS(=O)(=O)c4cc(F)cc(F)c4)cc3[nH]2)c1N [Example 5-1-420, N-[2-[5-amino-1-[6-(2-fluorophenoxy)-4-methylpyridin-3-yl]pyrazole-4-carbonyl]-5-(2,2-difluoroethoxy)-1H-indol-6-yl]-3,5-difluorobenzenesulfonamide]				160 nM	6.3 nM	600 nM
Cc1cc(Oc2ccccc2F)ccc1-n1ncc(C(=O)c2cc3cc(OCC(F)F)c(C4CCN(S(=O)(=O)C5CC5)CC4)cc3[nH]2)c1N [Example 4-17-016, [5-amino-1-[4-(2-fluorophenoxy)-2-methylphenyl]pyrazol-4-yl]-[6-(1-cyclopropylsulfonylpiperidin-4-yl)-5-(2,2-difluoroethoxy)-1H-indol-2-yl]methanone]				12 nM	6.4 nM	15 nM
Cc1ccccc1-c1cc2[nH]c(C(=O)c3cnn(-c4cnc(Oc5c(F)cccc5F)cc4C)c3N)cc2cc1OC1CCN(C2CS(=O)(=O)C2)CC1 [Example 5-1-338, [5-amino-1-[6-(2,6-difluorophenoxy)-4-methylpyridin-3-yl]pyrazol-4-yl]-[5-[1-(1,1-dioxothietan-3-yl)piperidin-4-yl]oxy-6-(2-methylphenyl)-1H-indol-2-yl]methanone]	30 nM	3 nM	180 nM			
Cc1cc(Oc2ccccc2F)ccc1-n1ncc(C(=O)c2cc3cc(F)c(NS(=O)(=O)c4cccc(Cl)c4)cc3[nH]2)c1N [Example 5-1-558, N-[2-[5-amino-1-[4-(2-fluorophenoxy)-2-methylphenyl]pyrazole-4-carbonyl]-5-fluoro-1H-indol-6-yl]-3-chlorobenzenesulfonamide]				230 nM	4.9 nM	1500 nM
Cc1cc2cc(C(=O)c3cnn(-c4cnc(Oc5c(F)cccc5F)cc4C)c3N)[nH]c2cc1N1CC(C)(C)NS1(=O)=O [Example 5-1-313, [5-amino-1-[6-(2,6-difluorophenoxy)-4-methylpyridin-3-yl]pyrazol-4-yl]-[6-(4,4-dimethyl-1,1-dioxo-1,2,5-thiadiazolidin-2-yl)-5-methyl-1H-indol-2-yl]methanone]	19 nM	2.8 nM	73 nM			
Nc1c(C(=O)c2cc3cc(F)c(NS(=O)(=O)C4CC4)cc3[nH]2)cnn1-c1c(Cl)cc(Oc2ccccc2F)cc1Cl [Example 5-1-025, N-[2-[5-amino-1-[2,6-dichloro-4-(2-fluorophenoxy)phenyl]pyrazole-4-carbonyl]-5-fluoro-1H-indol-6-yl]cyclopropanesulfonamide]	270 nM	20 nM	730 nM			
Cc1cc2cc(C(=O)c3cnn(-c4cnc(Oc5ccccc5F)cc4C)c3N)[nH]c2cc1NS(=O)(=O)c1cncc(Cl)c1 [Example 5-1-495, N-[2-[5-amino-1-[6-(2-fluorophenoxy)-4-methylpyridin-3-yl]pyrazole-4-carbonyl]-5-methyl-1H-indol-6-yl]-5-chloropyridine-3-sulfonamide]				360 nM	3.9 nM	550 nM
Cc1cc2cc(C(=O)c3cnn(-c4c(C)cc(Oc5cc(F)ccc5F)cc4F)c3N)[nH]c2cc1NS(C)(=O)=O [Example 4-2-057, N-[2-[5-amino-1-[4-(2,5-difluorophenoxy)-2-fluoro-6-methylphenyl]pyrazole-4-carbonyl]-5-methyl-1H-indol-6-yl]methanesulfonamide]				27 nM	4.3 nM	140 nM
Cc1cc(Oc2ccccc2F)ncc1-n1ncc(C(=O)c2cc3cc(OC4CCN(C(C)C)CC4)c(Br)cc3[nH]2)c1N [Example 5-1-153, [5-amino-1-[6-(2-fluorophenoxy)-4-methylpyridin-3-yl]pyrazol-4-yl]-[6-bromo-5-(1-propan-2-ylpiperidin-4-yl)oxy-1H-indol-2-yl] methanone]	3 nM	0.53 nM	7.9 nM			
Cc1cc2cc(C(=O)c3cnn(-c4c(C)cc(Oc5cccc(Cl)c5)cc4F)c3N)[nH]c2cc1NS(C)(=O)=O [Example 4-2-059, N-[2-[5-amino-1-[4-(3-chlorophenoxy)-2-fluoro-6-methylphenyl]pyrazole-4-carbonyl]-5-methyl-1H-indol-6-yl]methanesulfonamide]				110 nM	7.7 nM	390 nM
Cc1cc2cc(C(=O)c3cnn(-c4cnc(Oc5cccc(Cl)c5)cc4C)c3N)[nH]c2cc1NS(=O)(=O)CCCF [Example 4-2-075, N-[2-[5-amino-1-[6-(3-chlorophenoxy)-4-methylpyridin-3-yl]pyrazole-4-carbonyl]-5-methyl-1H-indol-6-yl]-3-fluoropropane-1-sulfonamide]				110 nM	10 nM	170 nM
Cc1cc(-n2ncc(C(=O)c3cc4cc(N5CCOCC5)c(N5CCOCC5)cc4[nH]3)c2N)ccc1Oc1ccccc1F [Example 5-1-159, [5-amino-1-[4-(2-fluorophenoxy)-3-methylphenyl]pyrazol-4-yl]-(5,6-dimorpholin-4-yl-1H-indol-2-yl)methanone]	39 nM	1.4 nM	96 nM			
Cc1cc2cc(C(=O)c3cnn(-c4cnc(Oc5ccccc5F)cc4C)c3N)[nH]c2cc1NS(=O)(=O)NC1CCOCC1 [Example 5-1-057, [5-amino-1-[6-(2-fluorophenoxy)-4-methylpyridin-3-yl]pyrazol-4-yl]-[5-methyl-6-(oxan-4-ylsulfamoylamino)-1H-indol-2-yl] methanone]	31 nM	2 nM	150 nM			
Cc1cc(Oc2ccccc2F)ccc1-n1ncc(C(=O)c2cc3cc(OC(F)F)c(N4CCN(S(C)(=O)=O)CC4)cc3[nH]2)c1N [Example 4-23-002, [5-amino-1-[4-(2-fluorophenoxy)-2-methylphenyl]pyrazol-4-yl]-[5-(difluoromethoxy)-6-(4-methylsulfonylpiperazin-1-yl)-1H-indol-2-yl]methanone]				20 nM	1.6 nM	44 nM
Cc1cc(Oc2c(F)cccc2F)ncc1-n1ncc(C(=O)c2cc3cc(OCC(F)F)c(N4CC(C)(C)NS4(=O)=O)cc3[nH]2)c1N [Example 5-1-321, [5-amino-1-[6-(2,6-difluorophenoxy)-4-methylpyridin-3-yl]pyrazol-4-yl]-[5-(2,2-difluoroethoxy)-6-(4,4-dimethyl-1,1-dioxo-1,2,5-thiadiazolidin-2-yl)-1H-indol-2-yl]methanone]	34 nM	5.8 nM	130 nM			
Nc1c(C(=O)c2cc3cc(F)c(NS(=O)(=O)CCCF)cc3[nH]2)cnn1-c1c(F)cc(Oc2cccc(F)c2F)cc1F [Example 5-1-034, N-[2-[5-amino-1-[4-(2,3-difluorophenoxy)-2,6-difluorophenyl]pyrazole-4-carbonyl]-5-fluoro-1H-indol-6-yl]-3-fluoropropane-1-sulfonamide]	62 nM	3.5 nM	180 nM			
Cc1cc(Oc2c(F)cccc2F)ncc1-n1ncc(C(=O)c2cc3cc(OCC(F)F)c(-c4cnn(C)c4)cc3[nH]2)c1N [Example 5-1-264, [5-amino-1-[6-(2,6-difluorophenoxy)-4-methylpyridin-3-yl]pyrazol-4-yl]-[5-(2,2-difluoroethoxy)-6-(1-methylpyrazol-4-yl)-1H-indol-2-yl]methanone]	21 nM	5.2 nM	26 nM			
Cc1cc(Oc2c(F)cccc2F)ncc1-n1ncc(C(=O)c2cc3cc(OC4CCN(C(C)C)CC4)c(N4CCOCC4)cc3[nH]2)c1N [Example 5-1-185, [5-amino-1-[6-(2,6-difluorophenoxy)-4-methylpyridin-3-yl]pyrazol-4-yl]-[6-morpholin-4-yl-5-(1-propan-2-ylpiperidin-4-yl)oxy-1H-indol-2-yl]methanone]	1.7 nM	0.36 nM	2.5 nM			
Nc1c(C(=O)c2cc3cc(F)c(NS(=O)(=O)CCCF)cc3[nH]2)cnn1-c1c(Cl)cc(Oc2cccc(F)c2F)cc1Cl [Example 5-1-028, N-[2-[5-amino-1-[2,6-dichloro-4-(2,3-difluorophenoxy)phenyl]pyrazole-4-carbonyl]-5-fluoro-1H-indol-6-yl]-3-fluoropropane-1-sulfanamide]	200 nM	13 nM	350 nM			
